Values of other authors in US20130046087A1, “Substituted Cyclodextrin Derivatives Useful As Intermediates For Producing Biologically Active Materials” (Arcarios BV, priority 2010, published 2013).

Test system: rabbit model of experimental osteoarthritis
Details: subcutaneously administered, per Osteoarthritis and Cartilage (2008) 16:986-993

β-cyclodextrin polysulfate
effect on cartilage lesions and osteocyte formation in the affected joints: reduced the cartilage lesions and osteocyte formation
